According to PubChem BioAssay (NCI):
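Grown in 96-well plates, cells were treated for 48 hours with each compound at five concentrations. Insufficient inhibition: endpoint recorded as highest concentration tested. At the TGI there is no net growth.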

What was measured:
Assay in all cases: NCI-60 cell line screen, 48 h
SK-OV-3 ovarian = system: SK-OV-3 ovarian
SW-620 colon = system: SW-620 colon
HOP-62 NSCLC = system: HOP-62 NSCLC
SN12C renal = system: SN12C renal
NCI-H460 lung = system: NCI-H460 lung
A549 NSCLC = system: A549 NSCLC
OVCAR-5 ovarian = system: OVCAR-5 ovarian
OVCAR-8 ovarian = system: OVCAR-8 ovarian
RXF 393 renal = system: RXF 393 renal
MDA-N = system: MDA-N
T-47D breast = system: T-47D breast

SMILES	TGI (SK-OV-3 ovarian) [µM]	TGI (SW-620 colon) [µM]	TGI (HOP-62 NSCLC) [µM]	TGI (SN12C renal) [µM]	TGI (NCI-H460 lung) [µM]	TGI (A549 NSCLC) [µM]	TGI (OVCAR-5 ovarian) [µM]	TGI (OVCAR-8 ovarian) [µM]	TGI (RXF 393 renal) [µM]	TGI (MDA-N) [µM]	TGI (T-47D breast) [µM]
Cc1ccc(/C=N\NC(=O)c2ccncc2)s1	> 100	> 100	> 100	> 100	> 100	> 100	> 100	> 100	> 100	> 100	> 100
COc1cc2c(c(OC)c1)C(=O)O[C@H](C)CCCC/C=C/C2	> 100	22.9	24.7	13.6	> 32.6	> 100	> 32.7	> 100	25.2	26.4	> 31.6
